In patent publication US12084451B2, “Compositions and methods for reducing tactile dysfunction, anxiety, and social impairment” (President and Fellows of Harvard College, priority 2018, dated 2024):

Tests used:
hGABAA α1β3γ2 = hGABAA α1β3γ2 (Homo sapiens, UniProt P14867+P18507+P28472); assay: hGABAA IonFlux HT PAM Assay, α1β3γ2; format: cell-based
Excerpt: (§1) Ligand-gated ion channels targeted were hGABAA α1β3γ2 and hGABAA α2β3γ2.
(§2) Electrophysiological assays conducted to profile nine (9) compounds for activities on the on channel targets listed above for Positive Allosteric Modulator (PAM) activities using the IonFlux HT electrophysiological platform.
The parameters measured are described in the Data Analysis section.
(§3) All wells included a final DMSO concentration of 0.33% including all control wells.
(§4) All recordings were obtained from a holding potential of −60 mV. The compound addition sequence that was used for all additions was the same for all assays. […] The process was repeated with the next ascending concentration of test compound (FIG. 1).
(§5) All data were first exported to an Excel compatible data file and then analyzed using Graph Pad Prism software.

hGABAA α2β3γ2 = hGABAA α2β3γ2 (Homo sapiens, UniProt P18507+P28472+P47869); assay: hGABAA IonFlux HT PAM Assay, α2β3γ2; format: cell-based; conditions: normalized to baseline peak current induced by EC20 GABA (0.8 μM) for 2 seconds
hGABAA α2β3γ2, sequence (P47869 29-451): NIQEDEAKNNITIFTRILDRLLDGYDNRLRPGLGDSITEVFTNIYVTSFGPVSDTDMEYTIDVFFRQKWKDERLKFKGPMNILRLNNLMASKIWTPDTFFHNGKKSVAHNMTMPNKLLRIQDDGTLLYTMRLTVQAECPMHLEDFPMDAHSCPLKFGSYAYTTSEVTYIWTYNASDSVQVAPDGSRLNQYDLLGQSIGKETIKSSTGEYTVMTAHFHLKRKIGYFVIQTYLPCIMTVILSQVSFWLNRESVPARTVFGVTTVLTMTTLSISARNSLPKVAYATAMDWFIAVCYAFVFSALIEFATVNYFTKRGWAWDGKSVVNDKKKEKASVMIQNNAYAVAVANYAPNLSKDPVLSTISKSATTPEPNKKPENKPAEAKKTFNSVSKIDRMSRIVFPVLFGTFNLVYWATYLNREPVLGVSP
hGABAA α2β3γ2, sequence (P28472 26-473): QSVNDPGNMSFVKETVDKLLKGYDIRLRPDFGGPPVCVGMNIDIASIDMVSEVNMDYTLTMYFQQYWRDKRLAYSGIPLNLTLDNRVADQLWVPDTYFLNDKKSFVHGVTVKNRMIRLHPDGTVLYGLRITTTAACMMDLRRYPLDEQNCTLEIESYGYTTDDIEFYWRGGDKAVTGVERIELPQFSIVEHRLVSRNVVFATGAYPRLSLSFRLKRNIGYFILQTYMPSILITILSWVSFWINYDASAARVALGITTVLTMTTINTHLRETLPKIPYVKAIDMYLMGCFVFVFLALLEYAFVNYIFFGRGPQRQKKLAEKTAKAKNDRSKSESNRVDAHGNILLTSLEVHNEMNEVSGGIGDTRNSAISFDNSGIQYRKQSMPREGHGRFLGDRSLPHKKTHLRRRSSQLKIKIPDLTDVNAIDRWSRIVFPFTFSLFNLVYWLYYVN
hGABAA α2β3γ2, sequence (P18507 40-475): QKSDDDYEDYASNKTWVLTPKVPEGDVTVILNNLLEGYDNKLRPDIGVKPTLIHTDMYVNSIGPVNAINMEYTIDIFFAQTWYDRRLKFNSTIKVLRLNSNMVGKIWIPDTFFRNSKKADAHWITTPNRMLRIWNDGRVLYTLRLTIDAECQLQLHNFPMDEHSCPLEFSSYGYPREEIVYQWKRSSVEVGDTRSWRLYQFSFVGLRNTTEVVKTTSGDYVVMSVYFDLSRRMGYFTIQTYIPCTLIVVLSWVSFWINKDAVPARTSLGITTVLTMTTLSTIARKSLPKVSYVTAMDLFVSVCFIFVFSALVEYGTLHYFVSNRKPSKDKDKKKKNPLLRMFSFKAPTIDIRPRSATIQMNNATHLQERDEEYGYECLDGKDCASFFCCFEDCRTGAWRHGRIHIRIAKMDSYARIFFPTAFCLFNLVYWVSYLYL
Excerpt: as §1, §2
The parameters measured are described in the Data Analysis section. […] Open circles represent data that has been excluded from the curve fitting. Where no curve fit was possible, n/c (not calculable) is listed.
as §3, §4, §5

hGABAA α1β3γ2, sequence (P14867 28-456): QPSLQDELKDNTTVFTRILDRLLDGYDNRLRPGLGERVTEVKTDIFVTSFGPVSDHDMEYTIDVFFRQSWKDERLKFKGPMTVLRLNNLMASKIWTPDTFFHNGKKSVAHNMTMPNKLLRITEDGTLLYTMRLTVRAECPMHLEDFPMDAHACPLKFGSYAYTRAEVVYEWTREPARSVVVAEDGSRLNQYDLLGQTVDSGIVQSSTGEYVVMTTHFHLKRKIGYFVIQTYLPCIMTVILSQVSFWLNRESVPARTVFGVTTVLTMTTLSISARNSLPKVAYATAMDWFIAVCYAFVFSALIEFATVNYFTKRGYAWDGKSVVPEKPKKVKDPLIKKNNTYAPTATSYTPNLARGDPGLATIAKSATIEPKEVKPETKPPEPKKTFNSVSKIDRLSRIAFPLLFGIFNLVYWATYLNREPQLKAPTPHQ
hGABAA α1β3γ2, sequence (P28472 26-473): as the sequence (P28472 26-473) above
hGABAA α1β3γ2, sequence (P18507 40-475): as the sequence (P18507 40-475) above

SMILES: Cc1ccc(-c2nc3ccc(C)cn3c2CC(=O)N(C)C)cc1 [Zolpidem]
- (%) Control mean (hGABAA α1β3γ2; 0.001 μM + EC20 GABA): 110.7 % Control
- (%) Control n1 (hGABAA α1β3γ2; 0.001 μM + EC20 GABA): 116.2 % Control
- (%) Control n2 (hGABAA α1β3γ2; 0.001 μM + EC20 GABA): 105.2 % Control
- (%) Control mean (hGABAA α1β3γ2; 0.01 μM + EC20 GABA): 141.9 % Control
- (%) Control n1 (hGABAA α1β3γ2; 0.01 μM + EC20 GABA): 144.3 % Control
- (%) Control n2 (hGABAA α1β3γ2; 0.01 μM + EC20 GABA): 139.4 % Control
- (%) Control mean (hGABAA α1β3γ2; 0.1 μM + EC20 GABA): 267.3 % Control
- (%) Control n1 (hGABAA α1β3γ2; 0.1 μM + EC20 GABA): 278.5 % Control
- (%) Control n2 (hGABAA α1β3γ2; 0.1 μM + EC20 GABA): 256.1 % Control
- (%) Control mean (hGABAA α1β3γ2; 1 μM + EC20 GABA): 292.4 % Control
- (%) Control n1 (hGABAA α1β3γ2; 1 μM + EC20 GABA): 294.8 % Control
- (%) Control n2 (hGABAA α1β3γ2; 1 μM + EC20 GABA): 290.1 % Control
- (%) Control mean (hGABAA α1β3γ2; 10 μM + EC20 GABA): 318.1 % Control
- (%) Control n1 (hGABAA α1β3γ2; 10 μM + EC20 GABA): 326.1 % Control
- (%) Control n2 (hGABAA α1β3γ2; 10 μM + EC20 GABA): 310.1 % Control
- (%) Control mean (hGABAA α1β3γ2; 100 μM + EC20 GABA): 330.6 % Control
- (%) Control n1 (hGABAA α1β3γ2; 100 μM + EC20 GABA): 349.7 % Control
- (%) Control n2 (hGABAA α1β3γ2; 100 μM + EC20 GABA): 311.6 % Control
- Mean Maximal Effect (% of Control) (hGABAA α1β3γ2; normalized to baseline peak current induced by EC20 GABA (1 μM) for 2 seconds): 331 % of Control
- Mean Maximal Effect (% of Control) (hGABAA α2β3γ2): 304 % of Control
